# Assay results taken from US20090253669A1, “Substituted Sulfonamide Compounds” (GRUENENTHAL GmbH, priority 2008, published 2009).
# Columns and labels:
# [1] = molecular target: T1, human B1R receptor (hB1R) (Homo sapiens, UniProt P46663); test: FLIPR Ca2+ assay on hB1R-transfected CHO K1 cells, antagonistic action; assay type: cell-based; conditions: CHO-K1, 10 μM test substance; agonist Lys-Des-Arg9-bradykinin 0.5 nM; % of maximum achievable inhibition; read-out: hB1R [10 μM] % inhibition
# T1 construct: host or cells: CHO K1 cells
# T1 sequence (P46663 1-353): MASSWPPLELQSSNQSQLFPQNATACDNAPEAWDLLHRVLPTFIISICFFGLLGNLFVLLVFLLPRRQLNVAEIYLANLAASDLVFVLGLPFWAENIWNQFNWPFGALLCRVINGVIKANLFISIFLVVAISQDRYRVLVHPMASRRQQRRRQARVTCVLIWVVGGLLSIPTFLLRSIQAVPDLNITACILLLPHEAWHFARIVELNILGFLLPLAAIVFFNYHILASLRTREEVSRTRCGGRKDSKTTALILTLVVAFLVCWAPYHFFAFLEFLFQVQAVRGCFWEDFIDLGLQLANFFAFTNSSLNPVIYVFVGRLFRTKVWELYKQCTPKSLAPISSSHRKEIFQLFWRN
# [2] = molecular target: T2, B1R receptor of the rat (rB1R) (Rattus norvegicus, UniProt P97583); test: FLIPR Ca2+ assay on rB1R-transfected CHO K1 cells, antagonistic action; assay type: cell-based; conditions: CHO-K1, 10 μM test substance; agonist Des-Arg9-bradykinin 100 nM; % of maximum achievable inhibition; read-out: rB1R [10 μM] % inhibition
# T2 construct: host or cells: CHO K1 cells
# T2 sequence (P97583 1-337): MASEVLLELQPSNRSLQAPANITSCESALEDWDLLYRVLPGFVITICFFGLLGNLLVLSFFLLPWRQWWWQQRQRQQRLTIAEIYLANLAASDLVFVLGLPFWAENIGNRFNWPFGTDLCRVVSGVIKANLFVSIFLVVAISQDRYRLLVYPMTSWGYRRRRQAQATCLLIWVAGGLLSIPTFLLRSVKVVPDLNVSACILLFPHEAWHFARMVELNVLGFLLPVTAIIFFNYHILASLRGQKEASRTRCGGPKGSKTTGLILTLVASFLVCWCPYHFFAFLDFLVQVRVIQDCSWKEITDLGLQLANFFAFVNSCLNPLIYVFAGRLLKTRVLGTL
Compound,inhibition at 10 µM [1] [%],inhibition at 10 µM [2] [%]
"CN(CCCC1CCC(c2ccccc2)(N2CCCC2)CC1)C(=O)CC1CCCCN1S(=O)(=O)c1cccc(C(F)(F)F)c1 (centres unmarked) [Compound 37, N-methyl-N-(3-(4-phenyl-4-(pyrrolidin-1-yl)cyclohexyl)propyl)-2-(1-(3-(trifluoromethyl)phenylsulfonyl)piperidin-2-yl)acetamide]",103,101
"COc1cc(C)c(S(=O)(=O)N2CCCC(COCC(=O)NC3CCC(c4ccccc4)(N4CCCC4)CC3)C2)c(C)c1 (centres unmarked) [Compound 187, 2-((1-(4-methoxy-2,6-dimethylphenylsulfonyl)piperidin-3-yl)methoxy)-N-(4-phenyl-4-(pyrrolidin-1-yl)cyclohexyl)acetamide]",95,63
"CN1CCN(C2(c3ccccc3)CCN(C(=O)CC(NS(=O)(=O)c3ccc4ccccc4c3)c3ccccc3)CC2)CC1 (centres unmarked) [Compound 82, N-(3-(4-(4-methylpiperazin-1-yl)-4-phenylpiperidin-1-yl)-3-oxo-1-phenylpropyl)naphthalene-2-sulfonamide]",99,99
"CN(CCC1CCC(CCc2ccccc2)(N(C)C)CC1)C(=O)CC(NS(=O)(=O)c1ccc2ccccc2c1)c1ccccc1 (centres unmarked) [Compound 102, N-(2-(4-(dimethylamino)-4-phenethylcyclohexyl)ethyl)-N-methyl-3-(naphthalene-2-sulfonamido)-3-phenylpropanamide]",97,85
"COc1ccc(S(=O)(=O)N2CCCCC2CCOCC(=O)NC2CCC(c3ccccc3)(N(C)C)CC2)cc1 (centres unmarked) [Compound 19, N-(4-(dimethylamino)-4-phenylcyclohexyl)-2-(2-(1-(4-methoxyphenylsulfonyl)piperidin-2-yl)ethoxy)acetamide]",51,73
"COc1cc(C)c(S(=O)(=O)N(C)CCOCC(=O)N(C)CCCC2CCC(Cc3ccccc3)(N3CCCC3)CC2)c(C)c1 (centres unmarked) [Compound 85, N-(3-(4-benzyl-4-(pyrrolidin-1-yl)cyclohexyl)propyl)-2-(2-(4-methoxy-N,2,6-trimethylphenylsulfonamido)ethoxy)-N-methylacetamide]",99,99
"O=C(CC(NS(=O)(=O)c1ccc2ccccc2c1)c1ccccc1)N1CCC(c2ccccc2)(N2CCN(c3ccncc3)CC2)CC1 (centres unmarked) [Compound 98, N-(3-oxo-1-phenyl-3-(4-phenyl-4-(4-(pyridin-4-yl)piperazin-1-yl)piperidin-1-yl)propyl)naphthalene-2-sulfonamide]",72,91
"CN(CC1CCC(c2ccccc2)(N2CCCC2)CC1)C(=O)CC(NS(=O)(=O)c1ccc2ccccc2c1)c1ccccc1 (centres unmarked) [Compound 92, N-methyl-3-(naphthalene-2-sulfonamido)-3-phenyl-N-((4-phenyl-4-(pyrrolidin-1-yl)cyclohexyl)methyl)propanamide]",101,95
"COc1cc(C)c(S(=O)(=O)N2CCC(OCC(=O)NC3CCC(CCc4ccccc4)(N(C)C)CC3)C2)c(C)c1 (centres unmarked) [Compound 5, N-(4-(dimethylamino)-4-phenethylcyclohexyl)-2-(1-(4-methoxy-2,6-dimethylphenylsulfonyl)pyrrolidin-3-yloxy)acetamide]",104,100
"COc1cc(C)c(S(=O)(=O)N(C)CCOCC(=O)N(C)CC2CCC(Cc3ccccc3)(N3CCN(C)CC3)CC2)c(C)c1 (centres unmarked) [Compound 183, N-((4-benzyl-4-(4-methylpiperazin-1-yl)cyclohexyl)methyl)-2-(2-(4-methoxy-N,2,6-trimethylphenylsulfonamido)ethoxy)-N-methylacetamide]",102,66
"COc1cc(C)c(S(=O)(=O)N2CCCC[C@H]2COCC(=O)N(C)CCC2CCC(c3ccccc3)(N3CCC3)CC2)c(C)c1 (stereo partly drawn) [Compound 201, (S)-N-(2-(4-(azetidin-1-yl)-4-phenylcyclohexyl)ethyl)-2-((1-(4-methoxy-2,6-dimethylphenylsulfonyl)piperidin-2-yl)methoxy)-N-methylacetamide]",100,97
"CN1CCN(C2(c3cccc(F)c3)CCN(C(=O)CC(NS(=O)(=O)c3ccc4ccccc4c3)c3ccccc3)CC2)CC1 (centres unmarked) [Compound 120, N-(3-(4-(3-fluorophenyl)-4-(4-methylpiperazin-1-yl)piperidin-1-yl)-3-oxo-1-phenylpropyl)naphthalene-2-sulfonamide]",97,67
"COc1cc(C)c(S(=O)(=O)N2CCCC2COCC(=O)N(C)CC2CCC(CCc3ccccc3)(N3CCN(C)CC3)CC2)c(C)c1 (centres unmarked) [Compound 148, 2-((1-(4-methoxy-2,6-dimethylphenylsulfonyl)pyrrolidin-2-yl)methoxy)-N-methyl-N-((4-(4-methylpiperazin-1-yl)-4-phenethylcyclohexyl)methyl)acetamide]",102,106
"COc1cc(C)c(S(=O)(=O)N(C)CCOCC(=O)N(C)CCC2CCC(c3ccccc3)(N3CCCC3)CC2)c(C)c1 (centres unmarked) [Compound 34, 2-(2-(4-methoxy-N,2,6-trimethylphenylsulfonamido)ethoxy)-N-methyl-N-(2-(4-phenyl-4-(pyrrolidin-1-yl)cyclohexyl)ethyl)acetamide]",104,101
"COc1cc(C)c(S(=O)(=O)N2CCC(OCC(=O)NC3CCC(Cc4ccccc4)(N4CCCC4)CC3)C2)c(C)c1 (centres unmarked) [Compound 166, N-(4-benzyl-4-(pyrrolidin-1-yl)cyclohexyl)-2-(1-(4-methoxy-2,6-dimethylphenylsulfonyl)pyrrolidin-3-yloxy)acetamide]",92,90
"CN1CCN(C2(Cc3ccccc3)CCC(CN(C)C(=O)COC3CCCN(S(=O)(=O)c4c(Cl)cc(Cl)cc4Cl)C3)CC2)CC1 (centres unmarked) [Compound 175, N-((4-benzyl-4-(4-methylpiperazin-1-yl)cyclohexyl)methyl)-N-methyl-2-(1-(2,4,6-trichlorophenylsulfonyl)piperidin-3-yloxy)acetamide]",97,77
"COc1cc(C)c(S(=O)(=O)N2CCCCC2COCC(=O)N(C)CCC2CCC(Cc3ccccc3)(N3CCCC3)CC2)c(C)c1 (centres unmarked) [Compound 68, N-(2-(4-benzyl-4-(pyrrolidin-1-yl)cyclohexyl)ethyl)-2-((1-(4-methoxy-2,6-dimethylphenylsulfonyl)piperidin-2-yl)methoxy)-N-methylacetamide]",103,100
"COc1cc(C)c(S(=O)(=O)N2CCC(OCC(=O)NC3CCC(c4ccccc4)(N4CCCCC4)CC3)C2)c(C)c1 (centres unmarked) [Compound 27, 2-(1-(4-methoxy-2,6-dimethylphenylsulfonyl)pyrrolidin-3-yloxy)-N-(4-phenyl-4-(piperidin-1-yl)cyclohexyl)acetamide]",69,51
"COc1cc(C)c(S(=O)(=O)N(C)CCOCC(=O)N(C)CCCC2CCC(c3ccccc3)(N3CCCC3)CC2)c(C)c1 (centres unmarked) [Compound 83, 2-(2-(4-methoxy-N,2,6-trimethylphenylsulfonamido)ethoxy)-N-methyl-N-(3-(4-phenyl-4-(pyrrolidin-1-yl)cyclohexyl)propyl)acetamide]",103,99
